“Also recorded” adds a separate entry of the source.
Legend:
[1] = tested on: human tumors; experiment: In vivo primary pharmacology, human tumors in mouse models
[2] = tested on: HT-29 human colon cancer cells; experiment: HT-29 colon tumor growth in CD-1 nude mice; assay type: in vivo; settings: for tumor weight / tumor growth: SEQ ID NO:1 10 mg/kg every other day
Procedure: A. HT-29 human colon cancer cells (3×10^6 cells in 100 μl of PBS) were subcutaneously injected into the right flank of 6-7 weeks old female CD-1 nude mice. After the size of tumor reached an approximate volume of 50 mm^3, 4 days post tumor cell injection, SEQ ID NO:1 was administered by bolus infusion into the tail vein every other day at 10 mg/kg. Control animals received saline alone for the same period. Antitumor effect of SEQ ID NO:1 was further compared to that of mitomycin C alone or that of SEQ ID NO:1 in combination with mitomycin C. Mitomycin C was administered intravenously at days 4, 11 and 18 with a dose of 3.5 mg/kg/week, one hour after the treatments with SEQ ID NO:1. All treatments were stopped at day 22. A day after the last treatment, tumors were excised from the animals and their weights were measured (FIG. 13A). […] The delay in tumor growth achieved with SEQ.
B. HT-29 human colon cancer cells (3×10^6 cells in 100 μl of PBS) were subcutaneously injected into the right flank of 5-6 week old female CD-1 nude mice. After the size of tumor reached an approximate volume of 100 mm^3, 7 days post tumor cell injection, SEQ ID NO:1 was administered by bolus infusion into the tail vein every other day at 10 mg/kg. Control animals received saline alone for the same period. Antitumor effect of SEQ ID NO:1 was further compared to that of CPT-11 alone or that of SEQ ID NO:1 in combination with CPT-11. CPT-11 was administered intraperitoneally for 5 days in a row from day 7-12 with a dose of 20 mg/kg in 100 μl saline. All treatments were stopped at day 32. A day after the last treatment, tumors were excised from the animals and their weights were measured (FIG. 13B).

[3] = tested on: Hep G2 (liver); experiment: Colony forming ability, Hep G2; assay type: cell-based, human; settings: 0.2 μM antisense oligonucleotide/lipofectin, 4 hours
Procedure: (§1) The effect of SEQ ID NO:1 on the colony forming ability were evaluated in the following human tumor cell lines:
(§2) Tumor cells were washed in 5 ml of phosphate buffered saline, pH 7.2, prior to 0.2 μM antisense oligonucleotide/lipofectin treatment for 4 hours. The medium was removed and the cells were gently washed with 5 ml of growth medium. The cells were then cultured in growth medium for seven to ten days. Surviving colonies were visualized by methylene blue staining and colonies of 50 or more cells were scored (Choy et al., 1988 and Huang and Wright, 1994). Results are summarized from 4 to 8 trials for each tumor cell line.

[4] = cynomolgus monkey, in vivo
[5] = tested on: Caki-1 human kidney cancer cells; experiment: Caki-1 renal tumor growth in SCID/beige mice; assay type: in vivo; settings: SCID/beige mice (NK, T and B cell deficient); 10 mg/kg/2 days i.v.; 32 days
Procedure: To address whether SEQ ID NO:1 anti-tumor activity is NK mediated, tumor xenograft growth was assessed in SCID/beige mice that are NK, T and B cell deficient. Caki-1 human kidney cancer cells (5×10^6 cells in 100 μl of PBS) were subcutaneously injected into the right flank of 6-7 weeks old female SCID/beige mice. After the size of tumor reached an approximate volume of 100 mm^3, 7 days post tumor cell injection, SEQ ID NO:1 and SEQ ID NO:1-SCR were administered (10 mg/kg/2 days, i.v.). Control animals received saline alone for the same period. Caliper measurements at 1 week intervals were used to calculate tumor volumes. Each point in FIG. 3 (top) represents mean tumor volume calculated from 10 animals per experimental group. After 32 days the mice were sacrificed and the tumors weighed. Each bar in FIG. 3 (bottom) represents the mean tumor weight and standard error calculated for each treatment group.

[6] = tested on: A2058 (melanoma); experiment: Colony forming ability, A2058; assay type: cell-based, human; settings: 0.2 μM antisense oligonucleotide/lipofectin, 4 hours
Procedure: as §1, §2

[7] = 14-day continuous intravenous infusion toxicity study in the rat; assay type: in vivo, Sprague Dawley rats
[8] = cynomolgus monkey, in vivo; remark: listed apart in the source
[9] = tested on: SK-OV-3 (ovary); experiment: Colony forming ability, SK-OV-3; assay type: cell-based, human; settings: 0.2 μM antisense oligonucleotide/lipofectin, 4 hours
Procedure: as §1, §2

[10] = tested on: R1 mRNA; experiment: Northern blot of R1 mRNA in HT-29 cells; assay type: cell-based, human; settings: 0.2 μM, four hours with Lipofectin, 16 hours recovery
Procedure: Total RNA was isolated using TRIzol reagent (GIBCO BRL) after cells were treated with 0.2 μM SEQ ID NO:1 for four hours in the presence of cationic lipid (Lipofectin reagent, GIBCO BRL), washed with PBS, and incubated for 16 hours to recover in normal medium containing 10% FBS. Northern blot analysis was performed as previously described (Hurta and Wright, 1995). RNA was subjected to electrophoresis through 1% formaldehyde agarose gels followed by transfer to nylon membranes. Blots were hybridized in the presence of a R1 fragment (McClarty et al, 1987). Glyceraldehyde-3-phosphate dehydrogenase (GAPDH) mRNA levels were simultaneously probed for RNA loading controls.

[11] = tested on: R1 mRNA; experiment: Northern blot of R1 mRNA in A2058 human melanoma cells; assay type: cell-based; settings: 0.2 μM, 4 hr with Lipofectin
Procedure: A2058 human melanoma cells, grown to subconfluency (70-80%), were treated with 0.2 μM of phosphorothioate antisense ODNs for 4 hr in the presence of cationic lipid (Lipofectin reagent, final concentration, 5 μg/ml, GIBCO BRL) and Opti-MEM (GIBCO BRL). Cells were washed once with PBS and incubated for 16 hr in α-MEM medium (GIBCO BRL) containing 10% FBS. Total RNA was prepared in TRIzol reagent (GIBCO BRL) and northern blot analysis was performed as previously described (Hurta and Wright, J. Cell. Biochem. 57: 543-56, 1995) with some modifications. RNA prepared from cells treated with lipofectin alone (Control), SEQ ID NO:1 and scrambled control analogue (SEQ ID NO:1 Scr) were subjected to electrophoresis through 1% formaldehyde agarose gels followed by transfer to nylon membrane. The blots were hybridized with ^32P-labeled probes that detect R1 mRNA, 28S rRNA, 18S rRNA, thioredoxin mRNA, […], GAPDH mRNA, thioredoxin reductase mRNA, ribosomal protein S9 mRNA, RNase MRP RNA, RNase P RNA and R2 mRNA.

5′-CTCTAGCGTCTTAAAGCCGA-3′ (CTCTAGCGTCTTAAAGCCGA; chemistry not given here) [SEQ ID NO:1]
efficacy in tumor xenograft experiments ([1]; SCID mice that are T and B cell deficient): highly effective | growth of human tumors in mouse models ([1]; doses of 1.0 to 10 mg/kg/day): significantly inhibited the growth | delay in tumor growth compared with mitomycin C alone ([2]; FIG. 13A): superior to the inhibitory effects observed with mitomycin C alone | tumor weight / tumor growth ([2]; FIG. 13A, mitomycin C 3.5 mg/kg/week i.v., stopped day 22): significant delay of tumor growth | tumor weight / tumor growth ([2]; FIG. 13B, CPT-11 20 mg/kg i.p. 5 days, stopped day 32): significant delay of tumor growth | inhibition in colony forming ability [3]: greater than 60% | elimination t1/2 [4]: 2.2 to 2.5 h | plasma Cl [4]: 0.762 to 1.945 mL/min/kg | time to Css [4]: consistently achieved at the first or second blood collection timepoint | tumor volume and tumor weight [5]: highly effective | inhibition in colony forming ability [6]: greater than 60% | sex effect on adverse effects [7]: more pronounced in males than females | treatment-related effects in the high dose group ([7]; 50 mg/kg/day (reduced to 40 mg/kg/day), 14-day infusion): severe adverse clinical signs and mortality; also recorded: high morbidity and mortality, reduced body weights and reduced food consumption | clinical pathology results ([7]; 2, 10, 50 mg/kg/day, 14 days): dose-dependent anemia, thrombocytopenia, coagulopathic selectivity for APTT, and liver and kidney toxicity in both sexes | pathological findings ([7]; 2, 10, 50 mg/kg/day, 14 days): major treatment-related changes in numerous tissues and organs of the high dose animals, in most tissues and organs of the mid dose animals; and sporadically in the evaluated tissues and organs of the low dose animals | toxicity ([7]; continuously for 14 days at 10 mg/kg/day (59 mg/m^2/day)): Severe toxicity | APTT values compared to control [8]: significantly longer | WBC counts [8]: marked increase | appetite [8]: significant decrease in appetite noted in the majority of high dose males | clinical signs [8]: Treatment-related reversible clinical signs were limited to a few high dose animals | lymphoid atrophy [8]: minimal to moderate lymphoid atrophy | ophthalmoscopy [8]: Bilateral retinopathy was noted in one high dose male | organ weights [8]: slight increase in relative and absolute kidney weights | red blood cell, hematocrit, and hemoglobin values [8]: slight to moderate reductions | summary of effects ([8]; 50 mg/kg/day): reversible signs of weakness, decreases in body weight and appetite, prolongation of APTT, anemia, thrombocytopenia, and monocytosis | inhibition in colony forming ability [9]: greater than 60% | R1 mRNA level [10]: specifically decreases R1 mRNA; also recorded: significant decrease; also recorded: decreased R1 mRNA levels | R1 mRNA expression [11]: significant decrease; also recorded: significantly decrease expression of R1mRNA
